Patent publication US7038047B2, “Substituted 6-(2-methoxyphenyl) triazolopyrimides as fungicides” (BASF Aktiengesellschaft, priority 2001, dated 2006)

Legend:
Cercospora beticola = assay: Fungicidal control of leaf spot on beets (Cercospora beticola), protective spray on sugar beet seedlings; format: in vivo; conditions: sugar beet seedlings ACH-31, sprayed before inoculation, untreated plants infected to 90%
Procedure: The active compounds, separately or together, were formulated as a 10% emulsion in a mixture of 70% by weight of cyclohexanone, 20% by weight of Nekanil® LN (Lutensol® AP6, wetting agent having emulsifying and dispersant action based on ethoxylated alkylphenols) and 10% by weight of Wettol® EM (nonionic emulsifier based on ethoxylated castor oil) and diluted with water to the desired concentration. Young sugar beet seedlings of the cultivar “ACH-31” were grown in pots to the 2 to 4 leaf stage. These plants were sprayed to runoff with an aqueous suspension, containing the concentration of active ingredient mentioned in the table below, prepared from a stock solution containing 5% of the active ingredient, 94% cyclohexanone and 1% emulsifier (Tween 20). After the plants had dried (3–5 h), they were inoculated with a spore suspension of Cercospora beticola in an aqueous solution of 0.5% gelatine. Then the trial plants were immediately transferred to a humid chamber with 18–23° C. and a relative humidity close to 100% and kept there for 5 days. For a period of further 10–14 days a cultivation in a greenhouse followed at 21–23° C. and a relative humidity about 95%. Then the extent of fungal attack on the leaves was visually assessed as % diseased leaf area.

[1] = test system: cucumber mildew (Sphaerotheca fuliginea); assay: Protective action on cucumber mildew, cucumber seedlings; format: in vivo; conditions: 250 ppm, inoculated 20 hours after spraying, assessed after 7 days, untreated plants infected to 90%
Description: The active compounds, separately or together, were formulated as a 10% emulsion in a mixture of 70% by weight of cyclohexanone, 20% by weight of Nekanil® LN (Lutensol® AP6, wetting agent having emulsifying and dispersant action based on ethoxylated alkylphenols) and 10% by weight of Wettol® EM (nonionic emulsifier based on ethoxylated castor oil) and diluted with water to the desired concentration.
Leaves of pot grown cucumber seedlings of the “Chinesische Schlange” variety were sprayed to runoff with aqueous liquors made from a stock solution consisting of 10% of active ingredient, 85% of cyclohexanone, and 5% of emulsifier. 20 hours after the sprays-on layer had dried, the plants were inoculated with a aqueous spore suspension of cucumber mildew (Sphaerotheca fuliginea). The plants were then placed for 7 days in the greenhouse at 20 to 24° C. and a relative humidity of 60 to 80%. The extent of fungus spread was assessed as %-attack of the whole leaf surface.

Structure (SMILES): COc1cc(F)cc(F)c1-c1c(Cl)nc2ncnn2c1NC(C)C(F)(F)F (stereo not drawn) [I-38, 5-chloro-6-(4,6-difluoro-2-methoxyphenyl)-7-(1,1,1-trifluoroprop-2-yl)amino-[1,2,4]-triazolo[1,5-α]pyrimidine]
- infection (% diseased leaf area) (Cercospora beticola; 50 ppm): not more than 7%
- infection (% diseased leaf area) (Cercospora beticola; 200 ppm): not more than 7%

Structure (SMILES): COc1cc(F)cc(F)c1-c1c(Cl)nc2ncnn2c1NC(C)C(F)(F)F (stereo not drawn) [I-38B, 5-chloro-6-(4,6-difluoro-2-methoxyphenyl)-7-(1,1,1-trifluoroprop-2-yl)amino-[1,2,4]-triazolo[1,5-α]pyrimidine]
- infection (%-attack of the whole leaf surface) [1]: no infection
